Results: patent publication US20240270809A1, “ORAL GLP RECEPTOR AGONISTS” (priority 2020, published 2024)
pEC50: −log10 of the molar value. Where two headings read alike, the source gives them in different places. Positions of bridges follow the written chain, without caps; N, C: chain ends. Non-standard residues stand in square brackets, D forms with d. Residues, ends and D or L forms follow the SMILES beside them. *: point of attachment. Malonyl(2,2-Me2,histaminyl) = CC(C)(C(=O)NCCc1cnc[nH]1)C(=O)*; Ala(1H-tetrazol-5-yl) = N[C@@H](Cc1nnn[nH]1)C(=O)O; αMePhe(2-F) = C[C@](N)(Cc1ccccc1F)C(=O)O; Nle = CCCC[C@H](N)C(=O)O

Experiments:
[1] = molecular target: T1, human GLP2 receptor (Homo sapiens, UniProt O95838); assay: cAMP accumulation assay, functional agonism of human GLP2 receptor; assay type: cell-based; details: HEK cells infected with human GLP2 receptor BacMam virus, HTRF cAMP; for Emax: HEK293, read-out: Human GLP-2R agonist cAMP Emax; for EC50: read-out: Human GLP-2R agonist cAMP pEC50 (converted)
T1 construct: expressed in transfected cells; host or cells: HEK cells, BacMam virus transduction
T1 sequence (O95838 1-553): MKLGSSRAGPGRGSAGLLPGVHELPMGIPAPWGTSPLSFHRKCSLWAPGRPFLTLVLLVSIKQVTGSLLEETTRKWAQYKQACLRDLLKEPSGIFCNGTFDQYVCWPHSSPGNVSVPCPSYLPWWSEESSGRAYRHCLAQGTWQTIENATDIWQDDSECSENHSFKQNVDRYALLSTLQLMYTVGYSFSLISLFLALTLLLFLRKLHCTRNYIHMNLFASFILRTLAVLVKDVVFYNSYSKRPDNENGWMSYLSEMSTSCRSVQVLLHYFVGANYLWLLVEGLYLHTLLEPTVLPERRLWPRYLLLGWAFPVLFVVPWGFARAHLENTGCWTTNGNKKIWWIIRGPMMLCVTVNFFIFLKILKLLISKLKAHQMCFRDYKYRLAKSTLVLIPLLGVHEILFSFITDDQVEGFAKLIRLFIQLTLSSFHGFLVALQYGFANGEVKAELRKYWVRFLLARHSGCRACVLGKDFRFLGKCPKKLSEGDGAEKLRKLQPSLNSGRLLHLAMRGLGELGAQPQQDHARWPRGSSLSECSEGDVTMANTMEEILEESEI
Procedure, shortened: (§1)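 HEK cells transduced for 24 hours with human GLP2 or GLP1 receptor BacMam virus were frozen, then stimulated with agonist in HBSS containing 0.5 mM IBMX. After 45 min at 37° C, cAMP was measured by HTRF after adding detection reagents in lysis buffer.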

[2] = molecular target: T2, human GLP1 receptor (Homo sapiens, UniProt P43220); assay: cAMP accumulation assay, functional agonism of human GLP1 receptor; assay type: cell-based; details: HEK cells infected with human GLP1 receptor BacMam virus, HTRF cAMP; for Emax: HEK293, read-out: Human GLP-1R agonist cAMP Emax; for EC50: read-out: Human GLP-1R agonist cAMP pEC50 (converted)
T2 construct: expressed in transfected cells; host or cells: HEK cells, BacMam virus transduction
Procedure, shortened: as §1

[3] = molecular target: T3, mouse GLP2 receptor (Mus musculus, UniProt Q5IXF8); assay: cAMP accumulation assay, functional agonism of mouse GLP2 receptor; assay type: cell-based
T3 construct: expressed in transfected cells; host or cells: HEK cells, transient transfection with GeneJuice
T3 sequence (Q5IXF8 1-512): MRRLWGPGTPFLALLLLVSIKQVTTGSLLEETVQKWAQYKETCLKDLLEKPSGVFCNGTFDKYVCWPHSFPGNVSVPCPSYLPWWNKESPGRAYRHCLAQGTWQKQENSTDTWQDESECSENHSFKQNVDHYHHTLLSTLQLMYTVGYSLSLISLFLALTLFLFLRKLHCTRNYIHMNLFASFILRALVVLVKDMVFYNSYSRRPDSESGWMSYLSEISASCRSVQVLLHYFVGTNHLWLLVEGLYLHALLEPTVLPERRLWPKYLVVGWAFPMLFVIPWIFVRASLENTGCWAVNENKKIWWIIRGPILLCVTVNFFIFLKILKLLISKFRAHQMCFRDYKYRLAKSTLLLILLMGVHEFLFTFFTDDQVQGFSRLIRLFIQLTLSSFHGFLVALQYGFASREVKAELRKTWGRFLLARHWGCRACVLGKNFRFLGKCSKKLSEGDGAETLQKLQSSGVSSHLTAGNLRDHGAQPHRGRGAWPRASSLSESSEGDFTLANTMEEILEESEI
Procedure, shortened: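 Transiently transfected HEK cells (24 h, frozen, 8000/well) in HBSS with 0.5 mM IBMX exposed to compound concentration series for 45 min at 37 °C. cAMP measured by HTRF after lysis and 1 h at RT; pEC50 from four-parameter concentration-response fit.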

[4] = molecular target: T4, mouse GLP1 receptor (Mus musculus, UniProt O35659); assay: cAMP accumulation assay, functional agonism of mouse GLP1 receptor; assay type: cell-based; details: HEK cells transiently transfected with mouse GLP1 receptor, HTRF cAMP
T4 construct: expressed in transfected cells; host or cells: HEK cells, transient transfection with GeneJuice
T4 sequence (O35659 22-463): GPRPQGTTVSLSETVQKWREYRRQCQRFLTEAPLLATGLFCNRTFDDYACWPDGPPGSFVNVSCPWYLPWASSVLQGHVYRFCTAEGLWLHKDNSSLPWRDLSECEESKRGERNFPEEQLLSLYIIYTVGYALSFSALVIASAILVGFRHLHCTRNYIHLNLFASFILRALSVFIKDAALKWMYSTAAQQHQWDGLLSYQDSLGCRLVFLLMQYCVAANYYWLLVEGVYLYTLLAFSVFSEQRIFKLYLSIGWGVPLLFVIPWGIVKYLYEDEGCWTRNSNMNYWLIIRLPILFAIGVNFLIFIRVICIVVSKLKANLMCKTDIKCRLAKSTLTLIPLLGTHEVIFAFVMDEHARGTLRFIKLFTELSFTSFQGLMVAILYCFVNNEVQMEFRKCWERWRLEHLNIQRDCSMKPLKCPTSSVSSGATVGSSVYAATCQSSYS
Method: CAMP production upon agonist stimulation of mouse GLP2 or GLP1 receptors was assessed utilizing HiRange cAMP kit (Cisbio). In brief, HEK cells were transiently transfected for 24 hours with cDNA using GeneJuice Transfection reagent (EMD Millipore) and frozen at −80° C. for later use in the assay. […] Cells were prepared in the assay buffer (HBSS (Lonza) supplemented with 0.5 mM IBMX (Tocris)). After 45 min incubation at 37° C., the reaction was stopped by addition of the HTRF detection reagents in the lysis buffer provided in the kit. Following 1-hour incubation at RT, plates were read on Pherastar FS (BMG Labtech, Inc.) using standard HTRF settings. Dotmatics Studies software was used for calculation of pEC50 values by fitting data to a four-parameter concentration response curve.

[5] = Stability of peptides in Fasted-State Simulated Intestinal Fluid (FaSSIF); assay type: in vitro ADME; details: FaSSIF with 10 mg/ml pancreatin; t=30 mins, 37° C., pH 6.5, 10 mg/ml pancreatin
[6] = Stability of peptides in Fasted-State Simulated Gastric Fluid (FaSSGF); assay type: in vitro ADME; details: FaSSGF with 0.1 mg/ml pepsin; t=30 mins, 37° C., pH 1.6, 0.1 mg/ml pepsin
[7] = Stability of peptides in rat intestinal fluid (ratIF); details: Sprague Dawley, undiluted rat small intestinal fluid (ratIF)
[8] = in vitro; details: Sprague Dawley, rat, real gastrointestinal fluid or homogenate

T2 sequence (P43220 24-463): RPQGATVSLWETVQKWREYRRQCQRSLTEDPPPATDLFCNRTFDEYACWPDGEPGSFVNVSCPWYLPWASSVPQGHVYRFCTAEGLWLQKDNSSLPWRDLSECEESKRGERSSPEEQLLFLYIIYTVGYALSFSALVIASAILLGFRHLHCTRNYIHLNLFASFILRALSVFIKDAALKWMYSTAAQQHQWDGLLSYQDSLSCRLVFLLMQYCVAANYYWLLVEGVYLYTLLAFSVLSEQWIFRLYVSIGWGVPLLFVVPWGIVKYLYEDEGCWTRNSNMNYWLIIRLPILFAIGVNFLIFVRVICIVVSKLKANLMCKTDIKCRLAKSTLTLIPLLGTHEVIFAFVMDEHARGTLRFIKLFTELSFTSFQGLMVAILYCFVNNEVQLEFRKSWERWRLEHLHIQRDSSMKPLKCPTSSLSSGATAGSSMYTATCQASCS

Emax ([3]; HEK293, HEK cells transiently transfected with mouse GLP2 receptor, HTRF cAMP, read-out: Mouse GLP-2R agonist cAMP Emax) [%]	EC50 ([3]; HEK cells transiently transfected with mouse GLP2 receptor, HTRF cAMP, read-out: Mouse GLP-2R agonist cAMP pEC50 (converted)) [nM]	Emax ([4]; HEK293, read-out: Mouse GLP-1R agonist cAMP Emax) [%]	EC50 ([4]; read-out: Mouse GLP-1R agonist cAMP pEC50 (converted)) [nM]	remaining at 0.5 h [5] [%]	remaining at 0.5 h [6] [%]	remaining at 0.5 h [7] [%]	SMILES	Emax [1] [%]	EC50 [1] [nM]	Emax [2] [%]	EC50 [2] [nM]	pEC50 [3]	Emax ([3]; HEK293, read-out: Mouse GLP-2R agonist cAMP Emax) [%]	remaining at 0.5 h [8] [%]
91.6	1	94.3	0.0398	11	34	22.5	CCCC[C@@H]1NC(=O)[C@H](CCC(=O)O)NC(=O)[C@@H](NC(=O)[C@H](CO)NC(=O)[C@H](Cc2ccccc2)NC(=O)[C@H](CO)NC(=O)CNC(=O)[C@H](Cc2nn[nH]n2)NC(=O)C(C)(C)C(=O)NCCc2c[nH]cn2)CCCCNC(=O)C[C@@H](C(=O)N[C@H](C(=O)N[C@@H](CC(C)C)C(=O)N[C@@H](CC(=O)O)C(=O)N[C@H]2CCC(=O)NCCCC[C@@H](C(=O)N[C@@H](CC(=O)O)C(=O)N[C@@H](Cc3ccccc3)C(=O)N[C@H](C(=O)N[C@@H](CC(N)=O)C(=O)N[C@@H](Cc3c[nH]c4ccccc34)C(=O)N[C@@H](CC(C)C)C(=O)N[C@H](C(=O)N[C@@H](CCC(N)=O)C(=O)N[C@H](C(=O)N[C@H]3CCC(=O)NCCCC[C@@H](C(N)=O)NC(=O)[C@H]([C@@H](C)O)NC(=O)[C@H]([C@@H](C)CC)NC3=O)[C@@H](C)O)[C@@H](C)CC)[C@@H](C)CC)NC(=O)[C@H](C)NC(=O)[C@H](C)NC(=O)[C@H](CCCCN)NC2=O)[C@@H](C)CC)NC(=O)[C@@H](Cc2ccccc2)NC1=O [Example 2] ({Malonyl(2,2-Me2,histaminyl)}-[Ala(1H-tetrazol-5-yl)]GSFSKE[Nle][dF]DILDEKAAKDFINWLIQTEITK-NH2; lactam 6-10, 14-18, 28-31 (inferred); C-terminus assumed)	103	0.0316	92.5	0.398	–	–	–
–	–	–	–	–	–	–	CCCC[C@@H]1NC(=O)[C@H](CCC(=O)O)NC(=O)[C@@H](NC(=O)[C@H](CO)NC(=O)[C@](C)(Cc2ccccc2F)NC(=O)[C@H](CO)NC(=O)[C@@H](C)NC(=O)[C@H](Cc2nn[nH]n2)NC(=O)C(C)(C)C(=O)NCCc2c[nH]cn2)CCCCNC(=O)C[C@@H](C(=O)N[C@H](C(=O)N[C@@H](CC(C)C)C(=O)N[C@@H](CC(=O)O)C(=O)N[C@H]2CCC(=O)NCCCC[C@@H](C(=O)N[C@@H](CC(=O)O)C(=O)N[C@@H](Cc3ccccc3)C(=O)N[C@H](C(=O)N[C@H]3CCCCNC(=O)C[C@@H](C(=O)N[C@H]4CCC(=O)NCCCC[C@@H](C(N)=O)NC(=O)[C@H]([C@@H](C)O)NC(=O)[C@H]([C@@H](C)CC)NC(=O)[C@H](CCCCN)NC4=O)NC(=O)[C@H]([C@@H](C)CC)NC(=O)[C@H](CC(C)C)NC(=O)[C@H](Cc4c[nH]c5ccccc45)NC3=O)[C@@H](C)CC)NC(=O)[C@H](C)NC(=O)[C@H](C)NC(=O)[C@H](CCCCN)NC2=O)[C@@H](C)CC)NC(=O)[C@@H](Cc2ccccc2)NC1=O [Example 55] ({Malonyl(2,2-Me2,histaminyl)}-[Ala(1H-tetrazol-5-yl)][dA]S[αMePhe(2-F)]SKE[Nle][dF]DILDEKAAKDFIKWLIDEKITK-NH2; lactam 6-10, 14-18, 22-26, 27-31 (inferred); C-terminus assumed)	103	0.01	97.9	0.0501	9.50	101	64.9
